One compound from publication PMC2171038 (Traffic (Copenhagen, Denmark), 2007) can be followed below.

The assay addresses T1, protoporphyrinogen oxidase (Saccharomyces cerevisiae, UniProt P40012).
T1 sequence (P40012 1-539): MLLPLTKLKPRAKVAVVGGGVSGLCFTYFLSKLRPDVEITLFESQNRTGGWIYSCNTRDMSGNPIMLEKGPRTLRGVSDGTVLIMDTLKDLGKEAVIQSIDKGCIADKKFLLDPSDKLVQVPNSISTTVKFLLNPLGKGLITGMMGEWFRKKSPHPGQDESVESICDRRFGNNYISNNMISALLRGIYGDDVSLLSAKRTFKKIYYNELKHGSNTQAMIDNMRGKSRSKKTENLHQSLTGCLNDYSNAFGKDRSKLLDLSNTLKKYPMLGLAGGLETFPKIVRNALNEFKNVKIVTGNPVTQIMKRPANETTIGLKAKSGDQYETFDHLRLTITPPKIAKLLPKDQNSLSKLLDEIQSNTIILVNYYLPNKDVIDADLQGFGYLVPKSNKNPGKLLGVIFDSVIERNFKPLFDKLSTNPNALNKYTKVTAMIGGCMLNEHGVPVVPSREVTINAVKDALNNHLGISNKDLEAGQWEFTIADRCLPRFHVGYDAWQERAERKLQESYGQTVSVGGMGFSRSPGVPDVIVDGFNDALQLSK
Description: fluorimetric protoporphyrinogen oxidase activity assay. The class given is biochemical.

One may read the IC50 as the concentration at which inhibition is half-maximal. With `CC(=O)N(O)CCCCCNC(=O)CCC(=O)N(O)CCCCCNC(=O)CCC(=O)N(O)CCCCCNC(=O)c1cc(Oc2ccc(C(F)(F)F)cc2Cl)ccc1[N+](=O)[O-]` [compound 1, DFOB-AF], the IC50 is around 100 nM.
